Assay: in vitro
Details: human, hela cells, % viability

Structure (SMILES)	viability at 28.5 h, 10 µM [%]
Cc1cc(N2CCN(C(=O)CCc3ccsc3)CC2)nc(C(C)C)n1 [CBK305710]	113
CNS(=O)(=O)c1ccc(CCC(=O)N(C)Cc2cnn(C)c2)cc1 [CBK305712]	84.9
Cn1cc(C(=O)Nc2cccc(S(=O)(=O)N3CCCCCC3)c2)cn1 [CBK305715]	87.2
Cc1ccccc1CN1CCC(NC(=O)Cn2cc(Br)ccc2=O)CC1 [CBK305716]	93.1
N#Cc1cccc(C(=O)N2CCC(NC(=O)c3ccc(F)cc3)CC2)c1 [CBK305717]	111
Cc1nn(CC(C)C)c(C)c1CCC(=O)NCc1nnc2ccccn12 [CBK305719]	88.1
Cc1cc(CN(C)C(=O)c2cccc(NC(=O)C3CCCCC3)c2)no1 [CBK305722]	92.6
CN1N=C(c2ccc(N3CCOCC3)c(F)c2)CC1c1cnn(C)c1 (stereo not drawn) [CBK305726]	87.6
O=C(Nc1ccc2nc(CN3CCOCC3)[nH]c2c1)C1CCCCC1 [CBK305728]	80.5
CCN(CCC(F)(F)F)C(=O)Cc1csc(NC(=O)c2ccoc2C)n1 [CBK305729]	83.3
CCN(Cc1ccc(C#N)cc1F)C(=O)Nc1cc(C)nn1C [CBK305730]	94.2
CS(=O)(=O)c1cc(Br)cc(C(=O)NCCNc2cnccn2)c1F [CBK305731]	85.8
CCN(CC(=O)NCc1ccc(Cl)cc1)S(=O)(=O)N1CCCCCC1 [CBK305733]	110
CCN(CC)C(=O)COc1ccc(NC(=O)Nc2cc(C)on2)cc1Cl [CBK305734]	104
CNC(=O)c1cccc(NC(=O)C(C)N(C)Cc2cnc(C)s2)c1 (stereo not drawn) [CBK305735]	81.5
CS(=O)(=O)NCC1CCCN(C(=O)Nc2cccc(Cl)c2)C1 (stereo not drawn) [CBK305736]	79.5
O=C(NC1CCN(CCOc2ccccc2F)CC1)c1cccs1 [CBK305737]	96.8
c1ccc(N2CCC(CNCc3c[nH]nc3-c3cccnc3)C2)cc1 (stereo not drawn) [CBK305738]	88.7

Structure (SMILES)	viability at 28.5 h, 10 µM [%]
COc1ccnc(N2CCN(C(=O)C3(C#N)CCCCC3)CC2)n1 [CBK305739]	92.2
CC(NC(=O)c1ccc(-c2ccccc2F)s1)C(=O)N1CCCCC1 (stereo not drawn) [CBK305740]	91.3
CC1CCc2c(C(=O)N3CCC4(CC3)NC(=O)NC4=O)csc2C1 (stereo not drawn) [CBK305741]	101
CN(Cc1cnn(C)c1)C(=O)c1ccc(Br)cc1O [CBK305742]	104
CC(=O)Nc1ccc(NCc2nc(C(C)C)no2)c(C(F)(F)F)c1 [CBK305743]	101
CC(=O)Nc1cccc(-n2nnnc2SCC2CCCCO2)c1 (stereo not drawn) [CBK305746]	91.5
CC1CCc2nc3ccccc3c(C(=O)N(C)Cc3cnn(C)c3)c2C1 (stereo not drawn) [CBK305749]	96.9
CC(C)n1ncc2cc(C(=O)Nc3ncccc3O)cnc21 [CBK305751]	109
O=C(NC1CCS(=O)(=O)C1)c1cc2ccc(OC(F)(F)F)cc2[nH]1 (stereo not drawn) [CBK305754]	92.4
CC1CCCN(CC(=O)NCc2ccc(OCC(N)=O)cc2)CC1 (stereo not drawn) [CBK305755]	92.1
CN(CC(N)=O)C(=O)CCn1c(=O)oc2cc(Cl)ccc21 [CBK305757]	94.9
Cc1nc(CC(=O)N2CCOC(c3ccc(F)cc3)C2)cs1 (stereo not drawn) [CBK305759]	106
Cc1cc(NC(=O)CN2CCC(CNc3ccccn3)C2)on1 (stereo not drawn) [CBK305760]	89.2
CCN(Cc1ccco1)C(=O)NC1CCCc2c1cnn2CCO (stereo not drawn) [CBK305767]	101
CC1CCC(C(N)=O)CN1C(=O)c1cc(Br)c[nH]1 (stereo not drawn) [CBK305769]	94
Cn1ccc(CN2CCOC(c3nc(C(C)(C)C)cs3)C2)cc1=O (stereo not drawn) [CBK305771]	108
Cc1nnc(CN2CCOC(c3nc(C(C)(C)C)cs3)C2)n1C (stereo not drawn) [CBK305772]	93.1
CC1CCC(C(N)=O)CN1C(=O)c1cncc(Br)c1 (stereo not drawn) [CBK305773]	96.3

From publication PMC12040169 (PLOS Biology, 2025)
